Test results published in patent US11401306B2, “HPV16 non HLA-restricted t-cell vaccines, compositions and methods of use thereof” (priority 2016, dated 2022).
No end group written: not given here.

How the values were obtained:
[1] = test system: HPV-specific T-cell response (splenocytes); assay: IFN-g ELISPOT on splenocytes of vaccinated humanized HLA-A2 transgenic mice; format: in vivo; details: for Immune Response, Method: ELISPOT: HLA-A2 humanized transgenic mice, IFN-gamma ELISPOT
Source text: (§1) Sequence selection was accomplished herein using both tumor regression studies in C57/B6 mice, and interferon-gamma ELISPOT studies in HLA-A2 humanized transgenic mice. […] In the HLA-A2 mouse model ELISPOT study, at least 20 spots per million splenocytes was regarded to be a positive response.
This example highlights the approach to evaluating T-cell responses using ELISPOT studies in humanized HLA-A2 transgenic mice. In these studies, the vaccine contained the selected peptide at a concentration of 0.1-3.0 mg/mL and cationic liposomes when used, at a concentration of 0.2-3.0 mg/mL. Humanized HLA-A2 transgenic mice having components of the human immune system capable of recognizing human antigens were vaccinated on day 0 and day 7 with 100 uL of the vaccine. On day 14 the mice were sacrificed and HPV-specific immune response evaluated by interferon-gamma ELISPOT using standard approaches with the splecocytes from the mice (4-8 per group). The splenocytes were stimulated with the specified CD8+ T-cell epitope peptides or the long multi-epitope peptides specified in Table 2. The number of IFN-g spots per million cells is listed for the specified examples. […] The ability of the humanized transgenic mice to successfully generate a T-cell immune response (>20 spots) when stimulated with each of the long multi-epitope peptides as well as short single epitope peptides confirms that the selected peptides are effectively processed and presented to T-cells. In these studies, un-stimulated splenocytes and splenocytes stimulated with irrelevant peptides were both used together as negative controls in every assay. For the positive control in the assay ConA was used.
The present study was performed to evaluate the effect of chemical modification of select peptides on immunogenicity and their ability to be processed, presented and to prime human CD8+ HPV-specific T-cell responses. Peptides corresponding to SEQ ID NO: 23 and 25 contain cysteines which upon oxidation lead to the formation of dimers and other multimers. Two vaccine formulations were prepared containing peptides corresponding to SEQ ID NO: 23 and 25.
In Formulation A: Both peptides were monomeric with high purity confirmed by HPLC analysis. The vaccine contained 1.5-1.6 mg/mL of each peptide.
In Formulation B: Significant oxidation and multimer formation of both peptides was confirmed by HPLC analysis.
Both formulations were mixed 1:1 with 5.8 mg/mL of R-DOTAP prior to vaccination.
The immunogenicity of the peptides was compared as described in the above examples in 10 HLA-A2 mice per formulation by evaluating the ability to induce CD8+ T-cells. ELISPOT studies were performed as described above.

TC-1 tumor = TC-1 tumor regression screening of peptides in C57/B6 mice; format: in vivo; design: key: Positive: a positive T-cell response was a T-cell response that resulted in regression of the tumor; details: TC-1 tumors in C57/B6 mice, vaccinated day 7, peptide alone or with cationic lipid
Source text: as §1
This example illustrates the evaluation or screening of several HPV16 E7 peptides in the TC-1 mouse tumor regression model for their effective processing and presentation of the key epitopes leading to HPV-specific T-cell induction and subsequent tumor regression.
In the tumor regression screening studies mice were implanted with 100,000 TC-1 cells on day 0. On day 7, once the tumors were well established the mice were vaccinated with the specific peptide sequences, either formulated alone or in combination with cationic lipids such as DOTMA, DOEPC or R-DOTAP to facilitate up-take and presentation. In these studies, the vaccine contained the selected peptide at a concentration of 0.1-3.0 mg/mL and cationic liposomes at a concentration of 0.2-3.0 mg/mL. In the cases where the peptide sequences were lipidated by attaching a palmitoyl chain, the peptides were simply mixed with the cationic liposomes prior to vaccination. In the case of the non-lipidated peptides, the liposomes were made and peptides encapsulated by traditional thin film liposome preparation methods (F Szoka, and D Papahadjopoulos, Comparative Properties and Methods of Preparation of Lipid Vesicles (Liposomes), Annual Review of Biophysics and Bioengineering, Vol. 9:467-508, 1980). Other methods well known to those skilled in the art may also have been used.
A sample tumor regression plot showing results for peptides corresponding to SEQ ID NO: 1 (blank square), SEQ ID NOS: 7, 8, 31 32 and 31 (solid black circle), SEQ ID NO: 7 (blank circle), and SEQ ID NO: 8 (solid black triangle) is shown in FIG. 3.

[2] = splenocytes stimulated with YMLDLQPETT (SEQ ID NO: 14)
[3] = splenocytes stimulated with TIHDIILECV (SEQ ID NO: 21)
[4] = splenocytes stimulated with LLMGTLGIV (SEQ ID NO: 15)
[5] = splenocytes stimulated with TLGIVCPIC (SEQ ID NO: 22)

Row | Molecule | Immune Response, Method: ELISPOT [1] | Immune Response, Method: tumor regression (TC-1 tumor) | also measured
1 | CSCC[C@H](NC(=O)[C@@H](N)Cc1ccc(O)cc1)C(=O)N[C@@H](CC(C)C)C(=O)N[C@@H](CC(=O)O)C(=O)N[C@@H](CC(C)C)C(=O)N[C@@H](CCC(N)=O)C(=O)N1CCC[C@H]1C(=O)N[C@@H](CCC(=O)O)C(=O)N[C@H](C(=O)N[C@H](C(=O)O)[C@@H](C)O)[C@@H](C)O [SEQ ID NO: 14] | Positive, ELISPOT (at least 20 spots per million splenocytes was regarded to be a positive response) | – | ELISPOT result Av spots/10^6 cells [1, 2]: 580 spots/10^6 cells
2 | CC[C@H](C)[C@H](NC(=O)CNC(=O)[C@H](CC(C)C)NC(=O)[C@@H](NC(=O)CNC(=O)[C@H](CCSC)NC(=O)[C@H](CC(C)C)NC(=O)[C@@H](N)CC(C)C)[C@@H](C)O)C(=O)N[C@H](C(=O)O)C(C)C [SEQ ID NO: 15] | Positive, ELISPOT (at least 20 spots per million splenocytes was regarded to be a positive response) | – | –
3 | CC[C@H](C)[C@H](NC(=O)CNC(=O)[C@H](CC(C)C)NC(=O)[C@@H](N)[C@@H](C)O)C(=O)N[C@H](C(=O)N[C@@H](CS)C(=O)N1CCC[C@H]1C(=O)N[C@H](C(=O)N[C@@H](CS)C(=O)O)[C@@H](C)CC)C(C)C [SEQ ID NO: 22] | Positive, ELISPOT (at least 20 spots per million splenocytes was regarded to be a positive response) | – | –
4 | CDSTLRLCVQ STHVDIRT (CDSTLRLCVQSTHVDIRT) [SEQ ID NO: 32, E7 61-78 peptide] | – | Positive, tumor | –
5 | DRAHYNIVTF [SEQ ID NO: 2, HPV16 E7 48-57 peptide] | – | Negative, tumor regression | –
6 | ELQTTIHDIILECVYCKQQLL [SEQ ID NO: 11, HPV16 E6 25-45 peptide] | Positive, ELISPOT (at least 20 spots per million splenocytes was regarded to be a positive response) | – | ELISPOT result Av spots/10^6 cells [1, 3]: 262 spots/10^6 cells
7 | EPDRAHYNIVTFCCKCDS [SEQ ID NO: 8, HPV16 E7 46-63 peptide] | – | Negative, tumor regression | –
8 | GQAEPDRAHYNIVTF [SEQ ID NO: 5, HPV16 E7 43-57 peptide] | – | Positive, tumor regression | –
9 | KFYSKISEYRHCYYSLYGTTL [SEQ ID NO: 12, printed as E7 75-95 peptide] | Negative, ELISPOT | – | ELISPOT result Av spots/10^6 cells ([1]; splenocytes stimulated with KISEYRHCY (SEQ ID NO: 30)): 15 spots/10^6 cells
10 | KSS GQAEPDRAHYNIVTF (KSSGQAEPDRAHYNIVTF) [SEQ ID NO: 6, HPV16 E7 43-57 peptide with KSS] | – | Negative, tumor regression | –
11 | KSS RAHYNIVTF (KSSRAHYNIVTF) [SEQ ID NO: 4, HPV16 E7 49-57 peptide with KSS] | – | Positive, tumor regression | –
12 | LLMGTLGIVCPICSQKP [SEQ ID NO: 10, HPV16 E7 82-98 peptide] | Positive, ELISPOT (at least 20 spots per million splenocytes was regarded to be a positive response) | – | ELISPOT result Av spots/10^6 cells [1, 4]: 1 spots/10^6 cells; ELISPOT result Av spots/10^6 cells [1, 5]: 27 spots/10^6 cells
13 | MHGDTPTLHEYMLDLQPETT [SEQ ID NO: 9] | Positive, EISPOT (at least 20 spots per million splenocytes was regarded to be a positive response) | – | ELISPOT result Av spots/10^6 cells [1, 2]: 235 spots/10^6 cells
14 | PAGQAEPDRAHYNIVTFC [SEQ ID NO: 7, HPV16 E7 41-58 peptide] | – | Positive, tumor regression | –
15 | PalmKSS ELQTTIHDIILECVYCKQQLL [SEQ ID NO: 23] | Positive, ELISPOT (at least 20 spots per million splenocytes was regarded to be a positive response) | – | ELISPOT result Av spots/10^6 cells ([1]; Formulation A (monomeric peptides SEQ ID NO: 23 and 25, with R-DOTAP), stimulated with TIHDIILECV (SEQ ID NO: 21)): 314 spots/10^6 cells; ELISPOT result Av spots/10^6 cells ([1]; Formulation B (oxidized, multimer peptides SEQ ID NO: 23 and 25, with R-DOTAP), stimulated with TIHDIILECV (SEQ ID NO: 21)): 158 spots/10^6 cells; ELISPOT result Av spots/10^6 cells ([1]; splenocytes stimulated with ELQTTIHDIILECVYCKQQLL (SEQID NO: 13)): 8 spots/10^6 cells; ELISPOT result Av spots/10^6 cells [1, 3]: 612 spots/10^6 cells
16 | PalmKSS LLMGTLGIV [SEQ ID NO: 28] | Positive, ELISPOT (at least 20 spots per million splenocytes was regarded to be a positive response) | – | ELISPOT result Av spots/10^6 cells [1, 4]: 96 spots/10^6 cells
17 | PalmKSS LLMGTLGIVCPICSQKP [SEQ ID NO: 25] | Positive, ELISPOT (at least 20 spots per million splenocytes was regarded to be a positive response) | – | ELISPOT result Av spots/10^6 cells ([1]; Formulation A (monomeric peptides SEQ ID NO: 23 and 25, with R-DOTAP), stimulated with LLMGTLGIV (SEQ ID NO: 15)): 52 spots/10^6 cells; ELISPOT result Av spots/10^6 cells ([1]; Formulation B (oxidized, multimer peptides SEQ ID NO: 23 and 25, with R-DOTAP), stimulated with LLMGTLGIV (SEQ ID NO: 15)): 48 spots/10^6 cells; ELISPOT result Av spots/10^6 cells [1, 4]: 5 spots/10^6 cells; ELISPOT result Av spots/10^6 cells ([1]; splenocytes stimulated with LLMGTLGIVCPICSQKP (SEQ ID NO: 10)): 92 spots/10^6 cells; ELISPOT result Av spots/10^6 cells [1, 5]: 31 spots/10^6 cells
18 | PalmKSS MHGDTPTLHEYMLDLQPETT [SEQ ID NO: 24] | Positive, ELISPOT (at least 20 spots per million splenocytes was regarded to be a positive response) | – | ELISPOT result Av spots/10^6 cells ([1]; splenocytes stimulated with MHGDTPTLHEYMLDLQPETT (SEQ ID NO: 9)): 284 spots/10^6 cells; ELISPOT result Av spots/10^6 cells [1, 2]: 79 spots/10^6 cells
19 | PalmKSS RAHYNIVTF [SEQ ID NO: 3] | – | Positive, tumor regression | –
20 | PalmKSS YMLDLQPETT [SEQ ID NO: 27] | Positive, ELISPOT (at least 20 spots per million splenocytes was regarded to be a positive response) | – | ELISPOT result Av spots/10^6 cells [1, 2]: 280 spots/10^6 cells
21 | QQLLRREVYDFAFRDLCIVYR [SEQ ID NO: 13, printed as E7 42-62 peptide] | Negative, ELISPOT | – | ELISPOT result Av spots/10^6 cells ([1]; splenocytes stimulated with FAFRDLCIV (SEQ ID NO: 29)): 6 spots/10^6 cells
22 | RAHYNIVTF [SEQ ID NO: 1] | – | Positive, tumor regression | –
23 | TIHDIILECV [SEQ ID NO: 21, printed as E7 29-38 peptide] | Positive, ELISPOT (at least 20 spots per million splenocytes was regarded to be a positive response) | – | –
